From paper PMC12362615, “Design, Synthesis, and Cellular Characterization of a New Class of IPMK Kinase Inhibitors” (Journal of Medicinal Chemistry, 2025) come the findings set out here.

For orientation: inhibition means the relative decrease from the control value, in per cent. The % Inhibition is the share of the control response that was lost under treatment.

For experiment [1], the system named is human U251-MG glioblastoma cells. Description: CyQuant cell count / proliferation assay. Format: cell-based. Particulars: 48 h. The procedure: 1 Compound 1 inhibits human U251 glioblastoma cell growth and labeled inositol phosphate levels. (A) Schematic of inositol phosphate metabolism. (B) Chemical structure of compound 1, indicating moiety A (blue highlight), the core (gray highlight), and moiety B (red highlight), and the IC50 value as determined by the kinase-GLO assay. (C) CyQuant cell count assay of 10,000 human U251-MG glioblastoma cells seeded per well, treated for 48 h with DMSO vehicle or 400 nM compound 1 (n = 8, ***p = 0.0046, unpaired t test). (D) HPLC analysis of ^3H-inositol phosphates from U251-MG cells treated with 400 nM compound 1 (red bars) or DMSO (blue bars) and metabolically labeled with ^3H-inositol for 48 h, expressed as the percentage of the inositol peak from the HPLC for InsP3, InsP4, InsP5, and InsP6, as indicated, *p < 0.05 by unpaired t test Bonferroni corrected for multiple comparisons. (E) Same data as in (D) replotted with a nonzero y-axis to facilitate visualizing differences between DMSO vs. compound treatment for each indicated inositol phosphate species, *p < 0.05 by unpaired t test Bonferroni corrected for multiple comparisons.
Error represents the standard error from 3 independent assays. (B) CyQuant cellular proliferation assay of 10,000 human U251-MG glioblastoma cells seeded per well, treated for 48 h with DMSO vehicle or 10 μM 14 (n = 8, ****p adj < 0.0001 by one-way ANOVA, Dunnett’s corrected; *p < 0.05 by unpaired t test). (C) HPLC analysis of ^3H-inositol phosphates from U251-MG cells treated with 10 μM compound 14 (red bars) or DMSO (blue bars) and metabolically labeled with ^3H-inositol for 48 h, expressed as a percentage of all the peaks detectable from the HPLC, *p < 0.05, **p < 0.01, ***p < 0.001 by unpaired t test compared to DMSO-treated control for all remaining panels, n = 3. (D) Same as (C) but expressed as a percentage of the inositol HPLC peak, n = 3. (E) Same as C but expressed as a percentage of all the inositol phosphate peaks combined from the HPLC, n = 3.

Another experiment addresses T1, ABL (Homo sapiens, UniProt P00519).
T1 construct: purchased Carna Biosciences
The experiment in a line: Protein kinase profiling, Mobility Shift Assay (Carna Biosciences). The conditions noted are these: read-out: % Inhibition at 1.0 μM 14. The class given is biochemical. The procedure: (§1) Protein kinase profiling of compound 14 was executed by Carna Biosciences. Briefly, compound 14 was prepared by dissolving it in dimethyl sulfoxide (DMSO) and then further diluting it in DMSO to a concentration of […]. That stock solution was further diluted 25-fold with kinase assay buffer (20 mM HEPES, 0.01% Triton X-100, 2 mM DTT, pH 7.5) to make the final 1 μM compound 14 solution. Reference compounds for the assay controls were prepared similarly. The off-chip Mobility Shift Assay (MSA) was prepared with 5 μL of 4× compound solution, 5 μL of 4× substrate/ATP/metal solution, and 10 μL of 2× kinase solution, prepared with assay buffer (20 mM HEPES, 0.01% Triton X-100, 2 mM DTT, pH 7.5). The components were mixed and incubated in a polypropylene 384-well microplate for 1 h or 5 h at room temperature, depending on the kinase being tested. 60 μL of termination buffer (QuickScout Screening Assist MSA; Carna Biosciences) was added to the well to stop the reactions, and the mixture was applied to a LabChip3000 system (Caliper Life Sciences. The product and substrate peptide peaks were separated and quantitated. The kinase reactions were evaluated by the product ratio, calculated from the peak heights of the product (P) and substrate (S) peptides (P/(P + S)). Product ratio values for the control reaction were set as 0% inhibition, and the readout value of the background (no kinase added) was set as 100% inhibition. The percent inhibition of each test solution was then calculated as reported in Figure A. The phylogenetic tree was generated using KinMap at https://bmcbioinformatics.biomedcentral.com/articles/10.1186/s12859-016-1433-7.

Another experiment deals with T2, AKT1 (Homo sapiens, UniProt P31749).
T2 construct: purchased Carna Biosciences
The description is as above. The class given is biochemical. The conditions noted are these: read-out: % Inhibition at 1.0 μM 14. How it is done:
as §1

The next experiment addresses T3, AurA (Homo sapiens, UniProt O14965).
T3 construct: purchased Carna Biosciences
The description is as above. The class given is biochemical. The conditions noted are these: read-out: % Inhibition at 1.0 μM 14. The procedure: as §1

The target in another experiment is T4, CDK2 (Homo sapiens, UniProt P24941).
T4 construct: purchased Carna Biosciences
Described as above. The class given is biochemical. Particulars: read-out: % Inhibition at 1.0 μM 14. The procedure:
as §1

For the next experiment, the target named is T5, CSK (Homo sapiens, UniProt P41240).
T5 construct: purchased Carna Biosciences
Described as above. The conditions noted are these: read-out: % Inhibition at 1.0 μM 14. The class given is biochemical. The procedure:
as §1

Another experiment concerns the target T6, EGFR (Homo sapiens, UniProt P00533).
T6 construct: purchased Carna Biosciences
The experiment is described as above. The class given is biochemical. The conditions noted are these: read-out: % Inhibition at 1.0 μM 14. The procedure:
as §1

For another experiment, the target named is T7, Erk2 (Homo sapiens, UniProt P28482).
T7 construct: purchased Carna Biosciences
The experiment is described as above. The conditions noted are these: read-out: % Inhibition at 1.0 μM 14. The class given is biochemical. The procedure:
as §1

A further experiment deals with T8, FGFR1 (Homo sapiens, UniProt P11362).
T8 construct: purchased Carna Biosciences
The experiment is described as above. The class given is biochemical. The conditions noted are these: read-out: % Inhibition at 1.0 μM 14. How it is done:
as §1

A further experiment deals with T9, IGF1R (Homo sapiens, UniProt P08069).
T9 construct: purchased Carna Biosciences
The description is as above. Particulars: read-out: % Inhibition at 1.0 μM 14. The class given is biochemical. How it is done:
as §1

In another experiment the target is T10, IKKb (Homo sapiens, UniProt O14920).
T10 construct: purchased Carna Biosciences
The experiment is described as above. Format: biochemical. Particulars: read-out: % Inhibition at 1.0 μM 14. How it is done:
as §1

A further experiment concerns the target T11, JAK3 (Homo sapiens, UniProt P52333).
T11 construct: purchased Carna Biosciences
The description is as above. Format: biochemical. The conditions noted are these: read-out: % Inhibition at 1.0 μM 14. The procedure: as §1

In the next experiment the target is T12, KDR (Homo sapiens, UniProt P35968).
T12 construct: purchased Carna Biosciences
The experiment is described as above. Format: biochemical. The conditions noted are these: read-out: % Inhibition at 1.0 μM 14. The procedure: as §1

The target in a further experiment is T13, LCK (Homo sapiens, UniProt P06239).
T13 construct: purchased Carna Biosciences
The description is as above. The conditions noted are these: read-out: % Inhibition at 1.0 μM 14. Format: biochemical. The procedure:
as §1

A further experiment deals with T14, MER (Homo sapiens, UniProt Q12866).
T14 construct: purchased Carna Biosciences
The description is as above. The conditions noted are these: read-out: % Inhibition at 1.0 μM 14. Format: biochemical. How it is done: as §1

Another experiment addresses T15, MET (Homo sapiens, UniProt P08581).
T15 construct: purchased Carna Biosciences
The experiment is described as above. Particulars: read-out: % Inhibition at 1.0 μM 14. The class given is biochemical. How it is done: as §1

For the next experiment, the target named is T16, MST1 (Homo sapiens, UniProt Q13043).
T16 construct: purchased Carna Biosciences
The experiment is described as above. The class given is biochemical. The conditions noted are these: read-out: % Inhibition at 1.0 μM 14. How it is done:
as §1

In the next experiment the target is T17, PKCa (Homo sapiens, UniProt P17252).
T17 construct: purchased Carna Biosciences
The experiment is described as above. Format: biochemical. Particulars: read-out: % Inhibition at 1.0 μM 14. The procedure:
as §1

In a further experiment the target is T18, ROCK1 (Homo sapiens, UniProt Q13464).
T18 construct: purchased Carna Biosciences
The description is as above. The class given is biochemical. The conditions noted are these: read-out: % Inhibition at 1.0 μM 14. How it is done: as §1

For the next experiment, the target named is T19, TRKA (Homo sapiens, UniProt P04629).
T19 construct: purchased Carna Biosciences
The description is as above. The class given is biochemical. Particulars: read-out: % Inhibition at 1.0 μM 14. How it is done: as §1

The next experiment deals with T20, p38a (Homo sapiens, UniProt Q16539).
T20 construct: purchased Carna Biosciences
The experiment is described as above. Format: biochemical. The conditions noted are these: read-out: % Inhibition at 1.0 μM 14. How it is done: as §1

The test system of another experiment is S6Kb. The description is as above. Format: biochemical, human. The procedure:
Protein kinase profiling of compound 14 was executed by Carna Biosciences. Briefly, compound 14 was prepared by dissolving it in dimethyl sulfoxide (DMSO) and then further diluting it in DMSO to a concentration of 25 μM. That stock solution was further diluted 25-fold with kinase assay buffer (20 mM HEPES, 0.01% Triton X-100, 2 mM DTT, pH 7.5) to make the final 1 μM compound 14 solution. Reference compounds for the assay controls were prepared similarly. The off-chip Mobility Shift Assay (MSA) was prepared with 5 μL of 4× compound solution, 5 μL of 4× substrate/ATP/metal solution, and 10 μL of 2× kinase solution, prepared with assay buffer (20 mM HEPES, 0.01% Triton X-100, 2 mM DTT, pH 7.5). The components were mixed and incubated in a polypropylene 384-well microplate for 1 h or 5 h at room temperature, depending on the kinase being tested. […]

T5 sequence (P41240 whole entry): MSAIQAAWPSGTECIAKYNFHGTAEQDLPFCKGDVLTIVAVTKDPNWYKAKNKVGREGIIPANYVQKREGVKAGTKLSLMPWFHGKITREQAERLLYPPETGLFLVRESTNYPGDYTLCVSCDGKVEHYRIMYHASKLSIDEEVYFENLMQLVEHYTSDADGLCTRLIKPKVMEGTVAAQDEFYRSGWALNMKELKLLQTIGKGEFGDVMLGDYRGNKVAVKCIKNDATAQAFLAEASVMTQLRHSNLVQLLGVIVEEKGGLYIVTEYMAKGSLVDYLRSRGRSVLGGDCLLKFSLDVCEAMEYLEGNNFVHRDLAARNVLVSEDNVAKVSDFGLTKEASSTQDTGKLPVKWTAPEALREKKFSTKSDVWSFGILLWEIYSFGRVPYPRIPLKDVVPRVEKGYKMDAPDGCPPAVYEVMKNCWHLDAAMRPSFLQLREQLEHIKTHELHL
T3 sequence (O14965 whole entry): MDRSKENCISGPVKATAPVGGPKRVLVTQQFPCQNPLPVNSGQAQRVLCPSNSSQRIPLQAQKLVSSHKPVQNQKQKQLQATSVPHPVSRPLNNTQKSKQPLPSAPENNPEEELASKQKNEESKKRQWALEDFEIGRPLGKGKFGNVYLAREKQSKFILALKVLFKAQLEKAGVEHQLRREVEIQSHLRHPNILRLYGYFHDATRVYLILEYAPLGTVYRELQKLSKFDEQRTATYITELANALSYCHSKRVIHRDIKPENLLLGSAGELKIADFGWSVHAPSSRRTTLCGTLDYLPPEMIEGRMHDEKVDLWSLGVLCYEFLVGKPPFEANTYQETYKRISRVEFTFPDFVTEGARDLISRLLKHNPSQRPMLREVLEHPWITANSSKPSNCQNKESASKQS
T9 sequence (P08069 31-1367): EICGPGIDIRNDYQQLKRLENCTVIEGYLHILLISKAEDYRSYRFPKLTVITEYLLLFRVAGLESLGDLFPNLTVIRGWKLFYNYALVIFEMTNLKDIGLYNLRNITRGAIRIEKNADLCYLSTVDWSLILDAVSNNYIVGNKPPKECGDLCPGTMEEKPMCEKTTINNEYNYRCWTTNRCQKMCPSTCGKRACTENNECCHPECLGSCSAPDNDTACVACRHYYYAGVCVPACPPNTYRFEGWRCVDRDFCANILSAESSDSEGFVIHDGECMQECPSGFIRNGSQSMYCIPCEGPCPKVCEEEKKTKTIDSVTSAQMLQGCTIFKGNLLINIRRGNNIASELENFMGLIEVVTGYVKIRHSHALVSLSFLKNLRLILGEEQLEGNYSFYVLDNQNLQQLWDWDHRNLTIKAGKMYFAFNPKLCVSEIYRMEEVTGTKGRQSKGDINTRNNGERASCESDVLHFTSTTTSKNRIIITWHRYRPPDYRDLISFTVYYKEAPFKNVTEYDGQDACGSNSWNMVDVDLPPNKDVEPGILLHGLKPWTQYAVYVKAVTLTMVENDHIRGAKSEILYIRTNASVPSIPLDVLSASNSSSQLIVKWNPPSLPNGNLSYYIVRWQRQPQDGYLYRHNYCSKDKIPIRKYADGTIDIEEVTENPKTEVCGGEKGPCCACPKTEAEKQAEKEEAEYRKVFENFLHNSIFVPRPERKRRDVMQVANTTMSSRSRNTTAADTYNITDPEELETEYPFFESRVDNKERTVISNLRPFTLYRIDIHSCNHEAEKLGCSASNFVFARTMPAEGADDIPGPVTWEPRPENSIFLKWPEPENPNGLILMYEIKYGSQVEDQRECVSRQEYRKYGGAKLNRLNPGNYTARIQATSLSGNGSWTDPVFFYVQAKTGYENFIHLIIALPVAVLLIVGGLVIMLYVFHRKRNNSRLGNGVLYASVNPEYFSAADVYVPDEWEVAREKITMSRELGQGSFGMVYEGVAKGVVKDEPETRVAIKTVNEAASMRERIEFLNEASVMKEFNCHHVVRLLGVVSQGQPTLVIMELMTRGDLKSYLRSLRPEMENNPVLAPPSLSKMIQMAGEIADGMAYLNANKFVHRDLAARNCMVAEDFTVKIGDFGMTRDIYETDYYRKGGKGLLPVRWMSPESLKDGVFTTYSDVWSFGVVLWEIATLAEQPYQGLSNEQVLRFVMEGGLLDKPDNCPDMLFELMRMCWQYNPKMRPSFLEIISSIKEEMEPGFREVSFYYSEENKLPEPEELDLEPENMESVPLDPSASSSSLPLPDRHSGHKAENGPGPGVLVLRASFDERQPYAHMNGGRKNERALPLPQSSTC
T15 sequence (P08581 25-1390): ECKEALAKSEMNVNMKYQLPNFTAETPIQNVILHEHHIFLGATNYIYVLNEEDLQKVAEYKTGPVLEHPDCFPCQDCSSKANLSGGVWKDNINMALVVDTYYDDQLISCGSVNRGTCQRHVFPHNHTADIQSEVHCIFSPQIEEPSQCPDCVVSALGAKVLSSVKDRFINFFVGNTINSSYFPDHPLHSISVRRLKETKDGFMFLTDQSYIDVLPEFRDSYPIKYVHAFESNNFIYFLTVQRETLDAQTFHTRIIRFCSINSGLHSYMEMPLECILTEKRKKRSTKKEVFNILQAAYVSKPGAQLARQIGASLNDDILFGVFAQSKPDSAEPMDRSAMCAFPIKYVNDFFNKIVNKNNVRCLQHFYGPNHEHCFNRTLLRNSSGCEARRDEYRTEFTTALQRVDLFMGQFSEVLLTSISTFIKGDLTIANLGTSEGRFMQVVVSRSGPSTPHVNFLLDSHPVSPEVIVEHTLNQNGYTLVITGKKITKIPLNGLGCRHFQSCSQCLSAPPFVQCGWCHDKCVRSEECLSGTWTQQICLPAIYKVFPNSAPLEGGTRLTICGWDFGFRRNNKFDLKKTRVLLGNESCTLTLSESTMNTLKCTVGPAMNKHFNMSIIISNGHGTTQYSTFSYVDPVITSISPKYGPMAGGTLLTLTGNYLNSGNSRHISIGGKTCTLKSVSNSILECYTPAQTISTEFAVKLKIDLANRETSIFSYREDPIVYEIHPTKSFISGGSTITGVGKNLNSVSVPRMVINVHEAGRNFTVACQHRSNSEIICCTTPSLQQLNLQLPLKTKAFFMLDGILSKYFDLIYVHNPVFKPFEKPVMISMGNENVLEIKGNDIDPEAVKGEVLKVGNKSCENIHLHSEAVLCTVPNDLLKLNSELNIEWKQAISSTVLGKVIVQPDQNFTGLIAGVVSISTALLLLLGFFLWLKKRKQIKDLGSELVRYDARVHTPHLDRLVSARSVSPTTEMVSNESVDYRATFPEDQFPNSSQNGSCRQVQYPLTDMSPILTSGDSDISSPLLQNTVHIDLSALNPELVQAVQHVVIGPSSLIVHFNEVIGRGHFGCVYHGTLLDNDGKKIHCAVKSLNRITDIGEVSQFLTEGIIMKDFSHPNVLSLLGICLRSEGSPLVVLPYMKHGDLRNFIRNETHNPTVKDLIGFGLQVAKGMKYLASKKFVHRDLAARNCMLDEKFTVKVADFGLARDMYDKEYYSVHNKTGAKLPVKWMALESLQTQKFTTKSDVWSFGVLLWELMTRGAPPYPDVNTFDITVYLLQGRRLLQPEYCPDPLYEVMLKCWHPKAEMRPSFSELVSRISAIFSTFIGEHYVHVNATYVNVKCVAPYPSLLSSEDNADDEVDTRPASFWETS
T16 sequence (Q13043 whole entry): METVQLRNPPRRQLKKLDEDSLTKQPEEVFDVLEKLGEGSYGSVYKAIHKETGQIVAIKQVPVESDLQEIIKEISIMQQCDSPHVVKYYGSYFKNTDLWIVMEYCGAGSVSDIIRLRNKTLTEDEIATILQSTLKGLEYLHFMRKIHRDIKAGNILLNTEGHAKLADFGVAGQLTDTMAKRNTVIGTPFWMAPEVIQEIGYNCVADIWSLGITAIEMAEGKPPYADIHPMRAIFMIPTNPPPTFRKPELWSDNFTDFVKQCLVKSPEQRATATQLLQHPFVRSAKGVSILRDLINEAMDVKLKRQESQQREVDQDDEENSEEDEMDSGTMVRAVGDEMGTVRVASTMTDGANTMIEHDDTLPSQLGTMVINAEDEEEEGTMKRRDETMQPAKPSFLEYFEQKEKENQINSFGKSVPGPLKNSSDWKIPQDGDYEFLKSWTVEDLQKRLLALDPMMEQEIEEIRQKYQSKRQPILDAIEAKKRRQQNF
T7 sequence (P28482 whole entry): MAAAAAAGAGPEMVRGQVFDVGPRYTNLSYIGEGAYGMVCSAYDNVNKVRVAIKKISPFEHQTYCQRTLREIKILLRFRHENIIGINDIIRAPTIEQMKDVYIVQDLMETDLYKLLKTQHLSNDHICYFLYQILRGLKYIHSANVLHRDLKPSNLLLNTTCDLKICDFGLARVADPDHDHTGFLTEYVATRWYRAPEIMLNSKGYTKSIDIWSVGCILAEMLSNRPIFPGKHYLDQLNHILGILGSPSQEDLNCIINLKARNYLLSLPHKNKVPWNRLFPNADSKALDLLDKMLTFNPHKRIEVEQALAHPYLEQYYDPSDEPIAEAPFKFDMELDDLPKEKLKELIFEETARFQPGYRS

Regarding `c1cc(-c2onc3ccc(-c4nnn[nH]4)cc23)cc(C2CCN(C3CCC3)CC2)c1` [Compound 14, 3-(3-(1-Cyclobutylpiperidin-4-yl)phenyl)-5-(1H-tetrazol-5-yl)benzo[c]isoxazole], in [1] (1.0 μM), the cell growth result was “decreased cell growth”. Besides, the “cell growth, CyQuant cellular proliferation assay” value in experiment [1] (10 μM, vs DMSO) was “inhibits cell growth”. Further, the inhibition at 1 µM at ABL is 27.5%; at AKT1 it was 7.4%; at AurA, 24.7%; at CDK2, 1.6%; on CSK it was 5.5%; at EGFR it was 3.4%. Besides, the inhibition at 1 µM is -2.2% at Erk2; 40.5% at FGFR1; 1.7% on IGF1R; 0.4% at IKKb; 72.8% at JAK3; no less than 75% at KDR. The inhibition at 1 µM at LCK was determined as 32.7%; on MER, 72%; on MET it was 34.7%; on MST1, 51%; at PKCa, 59.6%; on ROCK1, 6.1%. Moreover, the inhibition at 1 µM came out at 35.9% at TRKA and 2.6% at p38a. The “% Inhibition at 1.0 μM 14” value with S6Kb worked out at 9.4%.
